Assays:
[1] = tested on: adult female Sprague-Dawley rats; test: rat infusion study: pedal withdrawal reflex PWR = 1 (analgesic effect); assay type: in vivo; conditions: for PWR = 1 Dose, head-to-head ratio to ketamine / PWR = 1 Time, head-to-head ratio to ketamine: ratio compound/ketamine; for PWR = 1 Time: time from onset of i.v. infusion to PWR = 1
Method: (§1) All animal experiments were conducted at the Ruakura Research Centre, Hamilton, New Zealand, using experimental protocols reviewed and approved by the Ruakura Animal Ethics Committee (ethics ref 12604).
(§2) Following acquisition of baseline physiologic parameters (heart rate, respiratory rate, PWR, and righting reflex (RR)) adult female Sprague-Dawley rats of approximately 350-450 g were put under non-traumatic restraint and the marginal vein of the tail was cannulated. Ketamine or a compound of the invention at 10 mg/ml was administered via a minibore extension tube adequately secured to the tail. Infusions were commenced at a rate (weight-adjusted) to deliver 20 mg/kg/min initially (until the pedal withdrawal reflex score PWR=1), then were reduced to a rate of 6.7 mg/kg/min. Infusion rate was then titrated in an up-and-down fashion to maintain dorsal recumbency and a PWR=1 to 10 minutes before cessation. Three rats were used in each study, with each group of rats also acting as their own ketamine control. The order of study drug administration was determined by prior odds/evens randomisation with a recovery interval of at least one hour afforded between experiments. PWR and RR were recorded at 1 minute intervals throughout. The times from cessation of infusion to return of righting reflex (RRR), and from cessation of infusion to the animals displaying independent locomotion (walk) were recorded.
Pedal Withdrawal Reflex (PWR) Scoring:
Nociceptive testing in animals was conducted via 1 second application of constant pressure (firm digital pressure) over the forepaw of the animal. Pedal withdrawal reflex testing is primarily used to assess analgesic effect, and responses are graded accordingly: 0, absent; 1, flicker; 2, moderate withdrawal; 3, fast withdrawal; 4, Fast withdrawal with cry/preceding apnoea (modified from Buitrago, S. et al. J. Amer. Assoc. Lab. Animal. Sci. 2008, 47, 11-17).

[2] = tested on: adult female Sprague-Dawley rats; test: rat infusion study: loss/recovery of righting reflex and walk (anaesthetic effect); assay type: in vivo; conditions: for LRR Dose, head-to-head ratio to ketamine / LRR Time, head-to-head ratio to ketamine / RRR Time, head-to-head ratio to ketamine / Walk Time, head-to-head ratio to ketamine: ratio compound/ketamine; for Walk Time: time from end of infusion to independent locomotion; for RRR Time: time from end of infusion to recovery of righting reflex; for LRR Time: time from onset of i.v. infusion to loss of righting reflex, 20 mg/kg/min initially
Method: as §1, §2
Loss of Righting Reflex (LRR):
This is primarily used to assess anaesthetic hypnotic effect. Righting reflex is judged absent when the rat fails to right from a position of dorsal recumbency to a position of sternal recumbency on three attempts performed in rapid succession. Dose to LRR is termed effective potency.

[3] = total drug administered to achieve PWR = 1, i.v. infusion
[4] = total drug administered to achieve loss of righting reflex, i.v. infusion

| Structure (SMILES) | PWR = 1 Dose, head-to-head ratio to ketamine [1] | PWR = 1 Time, head-to-head ratio to ketamine [1] | PWR = 1 Time [1] [s] | PWR = 1 Dose [1, 3] [mg/kg] | LRR Dose, head-to-head ratio to ketamine [2] | LRR Time, head-to-head ratio to ketamine [2] | Walk Time [2] [s] | RRR Time [2] [s] | LRR Time [2] [s] | LRR Dose [2, 4] [mg/kg] | RRR Time, head-to-head ratio to ketamine [2] | Walk Time, head-to-head ratio to ketamine [2] | minimal effective dose ([1]; Rattus norvegicus, iv, total drug administered to achieve PWR = 1, i.v. infusion) [mg/kg] | minimal effective dose ([2]; Rattus norvegicus, iv, total drug administered to achieve loss of righting reflex, i.v. infusion, read-out: LRR Dose) [mg/kg] | properties of racemate versus enantiomer (in words) ([2]; rat infusion study, discussion) | potency (in words) ([2]; rat infusion study, discussion) | recovery (in words) ([2]; rat infusion study, discussion) |
| --- | --- | --- | --- | --- | --- | --- | --- | --- | --- | --- | --- | --- | --- | --- | --- | --- | --- |
| CCCOC(=O)CCNC1(c2ccccc2Cl)CCCCC1=O.Cl (racemic) [rac-C2nPr, N-Propyl 3-((1-(2-chlorophenyl)-2-oxocyclohexyl)amino)propanoate Hydrochloride] | 6.48 | 6.67 | 420 ± 180 | 136 ± 67 | 7.28 | 7.92 | 0 | 0 | 404 ± 196 | 131 ± 62 | – | – | – | – | – | – | – |
| CCCOC(=O)CCCNC1(c2ccccc2Cl)CCCCC1=O.Cl (racemic) [rac-C3nPr, N-Propyl 4-((1-(2-chlorophenyl)-2-oxocyclohexyl)amino)butanoate Hydrochloride] | 7.46 | 6.64 | 558 ± 42 | 209 ± 20 | 5.95 | 4.77 | 65 ± 33 | 10 ± 5.5 | 329 ± 106 | 137 ± 48 | 0.012 | 0.05 | – | – | – | – | – |
| COC(=O)CCCCNC1(c2ccccc2Cl)CCCCC1=O.Cl (racemic) [rac-C4Me, Rac-Methyl 5-((1-(2-chlorophenyl)-2-oxocyclohexyl)amino)pentanoate Hydrochloride] | 2.00 | 1.53 | 124 ± 21 | – | 1.70 | 1.31 | 126 ± 32 | 99 ± 16 | 92 ± 14 | – | 0.090 | 0.086 | 44 ± 10 | 34 ± 7 | broadly equivalent properties | – | – |
| CCCOC(=O)CCCCNC1(c2ccccc2Cl)CCCCC1=O.Cl (racemic) [rac-C4nPr, N-Propyl 5-((1-(2-chlorophenyl)-2-oxocyclohexyl)amino)pentanoate Hydrochloride] | 3.19 | 3.60 | 277 ± 97 | 83 ± 34 | 3.56 | 4.17 | 90 ± 30 | 45 ± 15 | 271 ± 97 | 82 ± 34 | 0.05 | 0.08 | – | – | – | – | – |
| CCOC(=O)CCN[C@]1(c2ccccc2Cl)CCCCC1=O.Cl [(S)-C2Et, (S)-Ethyl 3-((1-(2-chlorophenyl)-2-oxocyclohexyl)amino) propanoate Hydrochloride] | 2.38 | 2.53 | 185 ± 55 | 62 ± 20 | 2.95 | 3.22 | 80 ± 8 | 62 ± 8 | 171 ± 54 | 59 ± 19 | 0.05 | 0.04 | – | – | – | only half as potent | faster recoveries than the corresponding racemates |

Source: patent US10239825B2, “Ketamine derivatives” (Auckland Uniservices Limited, priority 2013, dated 2019)
